Structures are written as SMILES.

This data set can be described thus: Clinical bioavailability study: renal excretion of flavones over 24 h after oral rutin. Conditions: Rutin molecularly dispersed in gelatin, taken by volunteers. It is filed as in vivo, gesunden Probanden. The text has this:
Die nahrungsbedingte Flavonausscheidung wurde dabei berücksichtigt und durch entsprechende Diätvorschriften möglichst gering gehalten.
Die Analytik und Identifikation der Flavonausscheidungen kann z.B. wie folgt durchgeführt werden: • 1. Saure Spaltung ( 1 M Salzsäure) der in biologischen Flüssigkeiten (Urin) enthaltenen Flavonkonjugate. • 2. Festphasenextraktion mit Methanol zur Anreicherung der freigesetzten Flavone (z.B. Extrelut^R, Fa. Merck). • 3. HPLC-Analytik mit Diodenarray-Detektion und Identifizierung einzelner Flavone, zusätzlich elektrochemische Identifikation (anodisches Oxidationspotential).
Die Empfindlichkeit der genannten Analytik ist >10 ng Flavon pro ml.

Turning to `C[C@@H]1O[C@@H](OC[C@H]2O[C@@H](Oc3c(-c4ccc(O)c(O)c4)oc4cc(O)cc(O)c4c3=O)[C@H](O)[C@@H](O)[C@@H]2O)[C@H](O)[C@H](O)[C@H]1O` [Rutin], the Metaboliten in vivo entry is recorded as “Quercetin, Kämpferol und Isorhamnetin”.

These data come from patent EP0577143A2, “Solid and liquid solutions of flavonoids” (ALFATEC-PHARMA GmbH, priority 1992, dated 1994).
